Source: patent US9695155B2, “Herbicidal substituted pyrimidinyloxy benzene compounds” (E. I. DU PONT DE NEMOURS AND COMPANY, priority 2013, dated 2017)

What was measured:
wheat = experiment: Test A postemergence; format: in vivo, Triticum aestivum; details: Triticum aestivum, post-emergence, 240 h
Outline: (§1)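 Injury scores run from 0, no effect, to 100, complete control, judged by eye against untreated plants roughly 10 days after treatment. Chemicals carried a surfactant in a non-phytotoxic solvent and went onto loam–sand soil preemergence or onto one- to two-leaf seedlings postemergence.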

corn [1] = experiment: Test A preemergence; format: in vivo, Zea mays; details: Zea mays, pre-emergence, 240 h, read-out: Corn plant response rating
Outline: as §1

wheat, winter = experiment: Test C postemergence; format: in vivo, Triticum aestivum; details: Triticum aestivum, post-emergence
Outline: (§2)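 Sown in loam/sand → sprayed pre-emergence; or grown to 1–4 leaves in peat mix → sprayed post-emergence. Same solvent/surfactant formulation both ways. Greenhouse 13–15 d. Score 0–100 visual.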

corn [2] = experiment: Test C preemergence; format: in vivo, Zea mays; details: Zea mays, pre-emergence
Outline: as §2

velvetleaf [3] = experiment: Test A preemergence; format: in vivo, Abutilon theophrasti; details: Abutilon theophrasti, pre-emergence, 240 h, read-out: Velvetleaf plant response rating
Outline: as §1

sedge, umbrella = experiment: Test B flooded paddy test; format: in vivo, Cyperus difformis; details: Cyperus difformis, Flood, 250 g ai/ha; 0 to 100 scale where 0 is no effect and 100 is complete control; read-out: Plant response rating, Sedge, Umbrella
Outline: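 Greenhouse flooded-pot test: compounds dosed into 3 cm standing water over 2-leaf plants, flood held constant. Rated visually after 13–15 days on 0–100 (complete control = 100); a dash marks no test result.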

velvetleaf [4] = experiment: Test C postemergence; format: in vivo, Abutilon theophrasti; details: Abutilon theophrasti, post-emergence
Outline: as §2

velvetleaf [5] = experiment: Test C preemergence; format: in vivo, Abutilon theophrasti; details: Abutilon theophrasti, pre-emergence
Outline: as §2

Italian ryegrass = experiment: Test C postemergence; format: in vivo, Lolium multiflorum; details: Lolium multiflorum, post-emergence
Excerpt: (§3) Seeds of plant species selected from blackgrass (Alopecurus myosuroides), Italian ryegrass (Lolium multiflorum), wheat, winter (winter wheat, Triticum aestivum), galium (catchweed bedstraw, Galium aparine), corn (Zea mays), large (Lg) crabgrass (Digitaria sanguinalis), giant foxtail (Setaria faberii), johnsongrass (Sorghum halepense), lambsquarters (Chenopodium album), morningglory (Ipomoea coccinea), yellow nutsedge (Cyperus esculentus), pigweed (Amaranthus retroflexus), ragweed (common ragweed, Ambrosia elatior), soybean (Glycine max), barnyardgrass (Echinochloa crus-galli), oilseed rape (Brassica napus), waterhemp (common waterhemp, Amaranthus rudis), kochia (Kochia scoparia), wild oat (Avena fatua), surinam grass (Brachiaria decumbens), foxtail, green (green foxtail, Setaria viridis), goosegrass (Eleusine indica), bromegrass, downy (downy bromegrass, Bromus tectorum), nightshade (eastern black nightshade, Solanum ptycanthum), cocklebur (common cocklebur, Xanthium strumarium), cupgrass, woolly (woolly cupgrass, Eriochloa villosa), bermudagrass (Cynodon dactylon), sunflower, (common oilseed sunflower, Helianthus annuus), Russian thistle (Salsola kali), and velvetleaf (Abutilon theophrasti) were planted into a blend of loam soil and sand and treated preemergence with test chemicals formulated in a non-phytotoxic solvent mixture which included a surfactant.
(§4) At the same time, plants selected from these crop and weed species and also barley, winter (winter barley, Hordeum vulgare), windgrass (Apera spica-venti), chickweed (common chickweed, Stellaria media), deadnettle (henbit deadnettle, Lamium amplexicaule), and canarygrass (littleseed canarygrass, Phalaris minor) were planted in pots containing Redi-Earth® planting medium (Scotts Company, 14111 Scottslawn Road, Marysville, Ohio 43041) comprising spaghnum peat moss, vermiculite, wetting agent and starter nutrients and treated with postemergence applications of test chemicals formulated in the same manner. Plants ranged in height from 2 to 18 cm (1- to 4-leaf stage) for postemergence treatments. Treated plants and controls were maintained in a greenhouse for 13 to 15 days, after which time all species were compared to controls and visually evaluated. Plant response ratings, summarized in Table C, are based on a scale of 0 to 100 where 0 is no effect and 100 is complete control. A dash (-) response means no test result.

lambsquarters = experiment: Test C postemergence; format: in vivo, Chenopodium album; details: Chenopodium album, post-emergence
Outline: as §2

blackgrass = experiment: Test C preemergence; format: in vivo, Alopecurus myosuroides; details: Alopecurus myosuroides, pre-emergence
Outline: as §2

pigweed = experiment: Test C preemergence; format: in vivo, Amaranthus retroflexus; details: Amaranthus retroflexus, pre-emergence
Outline: as §2

galium = experiment: Test C postemergence; format: in vivo, Galium aparine; details: Galium, post-emergence
Excerpt: as §3, §4

[6] = 125 g ai/ha, 0 to 100 scale where 0 is no effect and 100 is complete control
[7] = 500 g ai/ha, 0 to 100 scale, 0 no effect, 100 complete control, approx. 10 days

## Clc1cnc(Oc2ccccc2-n2cc(Br)cn2)nc1 [Compound 7, 2-[2-(4-bromo-1H-pyrazol-1-yl)phenoxy]-5-chloropyrimidine]
wheat; 125 g ai/ha, 0 to 100 scale where 0 is no effect and 100 is complete control, read-out: Plant response rating, Wheat
  plant injury at 125 g/ha: 30%
wheat; 500 g ai/ha, 0 to 100 scale, 0 no effect, 100 complete control, read-out: Plant response rating Wheat
  plant injury at 500 g/ha: 50%
Corn [1]; [6]
  plant injury at 125 g/ha: 0%
Corn [1]; [7]
  plant injury at 500 g/ha: 30%
wheat, winter; 125 g ai/ha, postemergence, read-out: Plant response rating (0 to 100), Wheat
  plant injury at 125 g/ha: 10%
wheat, winter; 250 g ai/ha, postemergence, read-out: Plant response rating (0 to 100), Wheat
  plant injury at 250 g/ha: 15%
wheat, winter; Postemergence, 31 g ai/ha, scale 0 to 100 (0 no effect, 100 complete control), 13 to 15 days, read-out: Plant response rating, Wheat
  plant injury at 31 g/ha: 5%
wheat, winter; Postemergence, 62 g ai/ha, scale 0 to 100 (0 no effect, 100 complete control), read-out: Plant response rating, Wheat
  plant injury at 62 g/ha: 5%
Corn [2]; 62 g ai/ha, preemergence, scale 0 (no effect) to 100 (complete control), read-out: Corn plant response rating
  plant injury at 62 g/ha: 5%
Corn [2]; 125 g ai/ha, preemergence, scale 0 (no effect) to 100 (complete control), read-out: Corn plant response rating
  plant injury at 125 g/ha: 5%
Corn [2]; 250 g ai/ha, preemergence, scale 0 (no effect) to 100 (complete control), read-out: Corn plant response rating
  plant injury at 250 g/ha: 5%
Corn [2]; Preemergence, 31 g ai/ha, scale 0 to 100, 0 no effect, 100 complete control
  Corn plant response rating (crop injury, 0 = no effect, 100 = complete kill) at 31 g/ha: 0%
Velvetleaf [3]; [6]
  pest or weed control at 125 g/ha: 100%
Velvetleaf [3]; [7]
  pest or weed control at 500 g/ha: 100%
sedge, umbrella
  pest or weed control at 250 g/ha: 75%
Velvetleaf [4]; 125 g ai/ha, postemergence, read-out: Plant response rating (0 to 100), Velvetleaf
  pest or weed control at 125 g/ha: 85%
Velvetleaf [4]; 250 g ai/ha, postemergence, read-out: Plant response rating (0 to 100), Velvetleaf
  pest or weed control at 250 g/ha: 85%
Velvetleaf [4]; Postemergence, 31 g ai/ha, scale 0 to 100 (0 no effect, 100 complete control), 13 to 15 days, read-out: Plant response rating, Velvetleaf
  pest or weed control at 31 g/ha: 40%
Velvetleaf [4]; Postemergence, 62 g ai/ha, scale 0 to 100 (0 no effect, 100 complete control), read-out: Plant response rating, Velvetleaf
  pest or weed control at 62 g/ha: 50%
Velvetleaf [5]; 62 g ai/ha, preemergence, scale 0 (no effect) to 100 (complete control), read-out: Velvetleaf plant response rating
  pest or weed control at 62 g/ha: 100%
Velvetleaf [5]; 125 g ai/ha, preemergence, scale 0 (no effect) to 100 (complete control), read-out: Velvetleaf plant response rating
  pest or weed control at 125 g/ha: 100%
Velvetleaf [5]; 250 g ai/ha, preemergence, scale 0 (no effect) to 100 (complete control), read-out: Velvetleaf plant response rating
  pest or weed control at 250 g/ha: 100%
Velvetleaf [5]; Preemergence, 31 g ai/ha, scale 0 to 100, 0 no effect, 100 complete control, read-out: Plant response rating, Velvetleaf
  pest or weed control at 31 g/ha: 40%
Italian ryegrass; 125 g ai/ha, postemergence, read-out: Plant response rating (0 to 100), Ryegrass, Italian
  pest or weed control at 125 g/ha: 10%
Italian ryegrass; 250 g ai/ha, postemergence, read-out: Plant response rating (0 to 100), Ryegrass, Italian
  pest or weed control at 250 g/ha: 40%
Italian ryegrass; Postemergence, 31 g ai/ha, scale 0 to 100 (0 no effect, 100 complete control), 13 to 15 days, read-out: Plant response rating, Ryegrass, Italian
  pest or weed control at 31 g/ha: 5%
Italian ryegrass; Postemergence, 62 g ai/ha, scale 0 to 100 (0 no effect, 100 complete control), read-out: Plant response rating, Ryegrass, Italian
  pest or weed control at 62 g/ha: 10%
lambsquarters; 125 g ai/ha, postemergence, read-out: Plant response rating (0 to 100), Lambsquarters
  pest or weed control at 125 g/ha: 98%
lambsquarters; 250 g ai/ha, postemergence, read-out: Plant response rating (0 to 100), Lambsquarters
  pest or weed control at 250 g/ha: 98%
lambsquarters; Postemergence, 31 g ai/ha, scale 0 to 100 (0 no effect, 100 complete control), 13 to 15 days, read-out: Plant response rating, Lambsquarters
  pest or weed control at 31 g/ha: 60%
lambsquarters; Postemergence, 62 g ai/ha, scale 0 to 100 (0 no effect, 100 complete control), read-out: Plant response rating, Lambsquarters
  pest or weed control at 62 g/ha: 98%
blackgrass; 62 g ai/ha, preemergence, scale 0 (no effect) to 100 (complete control), read-out: Blackgrass plant response rating
  pest or weed control at 62 g/ha: 10%
blackgrass; 125 g ai/ha, preemergence, scale 0 (no effect) to 100 (complete control), read-out: Blackgrass plant response rating
  pest or weed control at 125 g/ha: 50%
blackgrass; 250 g ai/ha, preemergence, scale 0 (no effect) to 100 (complete control), read-out: Blackgrass plant response rating
  pest or weed control at 250 g/ha: 85%
blackgrass; Preemergence, 31 g ai/ha, scale 0 to 100, 0 no effect, 100 complete control, read-out: Plant response rating, Blackgrass
  pest or weed control at 31 g/ha: 5%
pigweed; 62 g ai/ha, preemergence, scale 0 (no effect) to 100 (complete control), read-out: Pigweed plant response rating
  pest or weed control at 62 g/ha: 100%
pigweed; 125 g ai/ha, preemergence, scale 0 (no effect) to 100 (complete control), read-out: Pigweed plant response rating
  pest or weed control at 125 g/ha: 100%
pigweed; 250 g ai/ha, preemergence, scale 0 (no effect) to 100 (complete control), read-out: Pigweed plant response rating
  pest or weed control at 250 g/ha: 100%
pigweed; Preemergence, 31 g ai/ha, scale 0 to 100, 0 no effect, 100 complete control, read-out: Plant response rating, Pigweed
  pest or weed control at 31 g/ha: 100%
galium; 125 g ai/ha, postemergence, read-out: Plant response rating (0 to 100), Galium
  pest or weed control at 125 g/ha: 90%
galium; 250 g ai/ha, postemergence, read-out: Plant response rating (0 to 100), Galium
  pest or weed control at 250 g/ha: 98%
galium; Postemergence, 31 g ai/ha, scale 0 to 100 (0 no effect, 100 complete control), 13 to 15 days, read-out: Plant response rating, Galium
  pest or weed control at 31 g/ha: 65%
galium; Postemergence, 62 g ai/ha, scale 0 to 100 (0 no effect, 100 complete control), read-out: Plant response rating, Galium
  pest or weed control at 62 g/ha: 80%
